Measured values taken from PubChem BioAssay AID651765 (The Scripps Research Institute Molecular Screening Center, 2012).
Activity calls are given as the source filed them. How the calls were made is not given here.

Each molecule was assayed on HTR5A counterscreen cells, luminescence, activation (assay: HTR5A agonist-like luminescent signal – cell-based, luminescence, dose response, set 2, counter-screen for OPRM1-OPRD1 heterodimer activator project, late-stage follow-up (AID 651765)).
For `CCOC(=O)C1(Cc2ccccc2Cl)CCN(Cc2ccc(NC(C)=O)cc2)CC1`, the EC50 was > 50 µM (inactive).
`CCOC(=O)C1(Cc2cccc(OC)c2)CCCN(Cc2ccc(NC(C)=O)cc2)C1` (stereo not drawn) was tested, and the EC50 was > 50 µM (inactive).
For `CCOC(=O)C1(CCc2ccccc2)CCN(Cc2ccc(O)cc2)CC1`, the EC50 was > 50 µM (inactive).
For `CCOC(=O)C1(Cc2ccccc2)CCCN(Cc2ccc(NC(C)=O)cc2)C1` (stereo not drawn), the EC50 was > 50 µM (inactive).
For `CC(=O)Nc1ccc(CN2CCCC(CO)(CCc3ccccc3)C2)cc1` (stereo not drawn), the EC50 was > 50 µM (inactive).
`CCOC(=O)C1(CCc2ccccc2)CCN(Cc2ccc(OC)cc2)CC1` was tested, and the EC50 was > 50 µM (inactive).
In the case of `CCOC(=O)C1(CCc2ccccc2)CCN(Cc2ccc(C#CC(C)(C)O)cc2)CC1`, the EC50 is reported as > 50 µM (inactive).
In the case of `CCOC(=O)C1(Cc2ccc(OC)cc2)CCN(C(=O)c2ccc(N(C)C)cc2)CC1`, the EC50 is reported as > 50 µM (inactive).
`CCOC(=O)C1(CCc2ccccc2)CCCN(Cc2ccc(N3CCNC3=O)cc2)C1` (stereo not drawn) was tested, and the EC50 was > 50 µM (inactive).
In the case of `CCOC(=O)C1(CCOc2ccccc2)CCCN(Cc2ccc(NC(C)=O)cc2)C1` (stereo not drawn), the EC50 is reported as > 50 µM (inactive).
For `CCOC(=O)C1(CC2CC2)CCN(C(=O)c2ccc(N3CCCCC3)cc2)CC1`, the EC50 was > 50 µM (inactive).
For `CCOC(=O)C1(CCc2ccccc2)CCN(Cc2c(O)cccc2OC)CC1`, the EC50 was > 50 µM (inactive).
`CCOC(=O)C1CCN(C(=O)c2ccc(N(C)C)cc2)CC1` was tested, and the EC50 was > 50 µM (inactive).
For `CCOC(=O)C1(CCOC)CCN(Cc2ccc(N(C)c3ccccc3)cc2)CC1`, the EC50 was > 50 µM (inactive).
In the case of `CCOC(=O)C1(CC2CC2)CCN(Cc2ccc(NC(C)=O)cc2)CC1`, the EC50 is reported as > 50 µM (inactive).
For `O=C(O)C1CCCCC1C(=O)Nc1ccc(CN2CCCCC2)cc1` (stereo not drawn), the EC50 was > 50 µM (inactive).
In the case of `CCOC(=O)C1(CCOC)CCN(Cc2ccc(NC(C)=O)cc2)CC1`, the EC50 is reported as > 50 µM (inactive).
With `CCOC(=O)C1(CCc2ccccc2)CCN(Cc2ccc(C(=O)OC)cc2)CC1` the EC50 was > 50 µM (inactive).
With `CCOC(=O)C1CCN(CCC(=O)Nc2ccc(C)cc2)CC1` the EC50 was > 50 µM (inactive).
In the case of `CCOC(=O)C1(Cc2ccccc2C)CCCN(Cc2ccc(NC(C)=O)cc2)C1` (stereo not drawn), the EC50 is reported as > 50 µM (inactive).
`C=Cc1ccc(C(=O)N2CCC(CCCc3ccccc3)(C(=O)OCC)CC2)cc1` was tested, and the EC50 was > 50 µM (inactive).
`CCOC(=O)C1CCCCN1Cc1ccc(NC(C)=O)cc1` (stereo not drawn) was tested, and the EC50 was > 50 µM (inactive).
In the case of `CCOC(=O)C1CCN(Cc2ccc(N(C)C)cc2)CC1`, the EC50 is reported as > 50 µM (inactive).
In the case of `CCOC(=O)C1(CCc2ccccc2)CCN(Cc2ccncc2)CC1`, the EC50 is reported as > 50 µM (inactive).
In the case of `CCOC(=O)C1(CCOC)CCCN(Cc2ccc(NC(C)=O)cc2)C1` (stereo not drawn), the EC50 is reported as > 50 µM (inactive).
For `C=Cc1ccc(C(=O)N2CCC(CCc3ccccc3)(C(=O)OCC)CC2)cc1`, the EC50 was > 50 µM (inactive).
With `CCOC(=O)C1(CCc2ccccc2)CCN(C(=O)Nc2ccc(C)cc2C)CC1` the EC50 was > 50 µM (inactive).
With `CCOC(=O)C1CCN(Cc2ccc(NC(C)=O)cc2)CC1` the EC50 was > 50 µM (inactive).
